Assay results: US20160137630A1, “INDUCTION OF GATA2 BY HDAC1 AND HDAC2 INHIBITORS” (ACETYLON PHARMACEUTICALS, INC., priority 2014, published 2016)
Entries after “also recorded” stand apart in the source; their conditions may differ. Where two headings read alike, the source gives them in different places.

Assays:
HDACs 4-9 = test: in vitro HDAC inhibition assay, HDACs 4-9; assay type: biochemical; settings: concentrations as high as 20 μM; FIG. 20
[1] = pharmacokinetics of Compound 001 in cynomolgus monkeys; assay type: in vivo; settings: cynomolgus monkey, plasma, read-out: minimum drug exposure for the entire dosing period
Description: B. Cynomolgus monkey were dosed once daily by oral gavage for 5 consecutive days at 0 mg/kg, 25 mg/kg, or 75 mg/kg per dose (FIG. 25B). Sampling as described in ‘A’.
C. […] Points are the average of replicate animals, error bars are the standard deviation of replicate animals (FIG. 25C).

[2] = tested on: histone acetylation (H3K9/14ac, H3K56ac, H3K79ac, H2BK5ac); test: histone acetylation levels by western blot; settings: 1 and 5 μM, FIG. 9B
HbD promoter = test: Gata2 binding at the β-like globin gene cluster (ChIP-seq, ChIP-QPCR); assay type: cell-based
Description: The tight temporal correlation between Gata2 and HbG activation following HDAC1/2 inhibition argues that Gata2 may affect the beta-globin locus directly. […] In FIG. 8C, the ChIP-seq results in FIG. 8A were validated in a second experimental series using QRT-PCR and two primer sets directed to the delta globin promoter. A primer set at the beta globin promoter was used as a control. […] This region is suspected in playing a role in switching from fetal to adult globin during development, as naturally occurring deletions of this region are associated with elevated fetal hemoglobin in adults (Sankaran V G, Xu J, Byron R, et al. A functional element necessary for fetal hemoglobin silencing. The New England journal of medicine. 2011; 365(9):807-814.).
To investigate this possibility, the β-like globin gene cluster was looked at in the Gata2 ChIP-seq data described above.

[3] = tested on: K562 erythroleukemia cells; test: Gata2 mRNA in K562 cells; assay type: cell-based; settings: 3 days, FIG. 3

In the case of Nc1ccc(-c2cccs2)cc1NC(=O)c1ccc2nc(N3CCNCC3)ccc2c1 [Compound 001, N-(2-amino-5-(thiophen-2-yl)phenyl)-2-(piperazin-1-yl)quinoline-6-carboxamide], the “inhibition of HDACs 4-9” value (HDACs 4-9) is reported as “negligible inhibitory activity; also recorded: no inhibition”, the concentration at 5 days ([1]; high dose (75 mg/kg once daily oral gavage, 5 days)) is reported as ≥ 5000 nM and the concentration at 5 days ([1]; low dose (25 mg/kg once daily oral gavage, 5 days)) is reported as ≥ 1000 nM. For the same compound, the “histone acetylation (H3K9/14ac, H3K56, H3K79ac, H2BK5ac)” value [2] was “dose-dependent accumulation of acetylation”, the “increase in Gata2 binding at the HbD promoter region” value (HbD promoter; ChIP-seq) was 1.8 fold and the “increase in Gata2 binding at the HbD promoter” value (HbD promoter; independent ChIP-QPCR experiment) was 2 fold. The “Gata2 mRNA” value [3] was “dose dependent response”.
